Source: ChEMBL document CHEMBL1142902, “Inhibition of FLT3 and PDGFR tyrosine kinase activity by bis(benzo[b]furan-2-yl)methanones” (Bioorg Med Chem, 2007)

Columns and labels:
[1] = molecular target: Platelet-derived growth factor receptor beta (Mus musculus, UniProt P05622); test: Inhibition of endogenous PDGFRbeta autophosphorylation in Swiss 3T3 fibroblasts
[2] = molecular target: T1, Receptor-type tyrosine-protein kinase FLT3 (Homo sapiens, UniProt P36888); test: Inhibition of endogenous FLT3 autophosphorylation in EOL1 cells; type: cell-based
T1 sequence (P36888 whole entry): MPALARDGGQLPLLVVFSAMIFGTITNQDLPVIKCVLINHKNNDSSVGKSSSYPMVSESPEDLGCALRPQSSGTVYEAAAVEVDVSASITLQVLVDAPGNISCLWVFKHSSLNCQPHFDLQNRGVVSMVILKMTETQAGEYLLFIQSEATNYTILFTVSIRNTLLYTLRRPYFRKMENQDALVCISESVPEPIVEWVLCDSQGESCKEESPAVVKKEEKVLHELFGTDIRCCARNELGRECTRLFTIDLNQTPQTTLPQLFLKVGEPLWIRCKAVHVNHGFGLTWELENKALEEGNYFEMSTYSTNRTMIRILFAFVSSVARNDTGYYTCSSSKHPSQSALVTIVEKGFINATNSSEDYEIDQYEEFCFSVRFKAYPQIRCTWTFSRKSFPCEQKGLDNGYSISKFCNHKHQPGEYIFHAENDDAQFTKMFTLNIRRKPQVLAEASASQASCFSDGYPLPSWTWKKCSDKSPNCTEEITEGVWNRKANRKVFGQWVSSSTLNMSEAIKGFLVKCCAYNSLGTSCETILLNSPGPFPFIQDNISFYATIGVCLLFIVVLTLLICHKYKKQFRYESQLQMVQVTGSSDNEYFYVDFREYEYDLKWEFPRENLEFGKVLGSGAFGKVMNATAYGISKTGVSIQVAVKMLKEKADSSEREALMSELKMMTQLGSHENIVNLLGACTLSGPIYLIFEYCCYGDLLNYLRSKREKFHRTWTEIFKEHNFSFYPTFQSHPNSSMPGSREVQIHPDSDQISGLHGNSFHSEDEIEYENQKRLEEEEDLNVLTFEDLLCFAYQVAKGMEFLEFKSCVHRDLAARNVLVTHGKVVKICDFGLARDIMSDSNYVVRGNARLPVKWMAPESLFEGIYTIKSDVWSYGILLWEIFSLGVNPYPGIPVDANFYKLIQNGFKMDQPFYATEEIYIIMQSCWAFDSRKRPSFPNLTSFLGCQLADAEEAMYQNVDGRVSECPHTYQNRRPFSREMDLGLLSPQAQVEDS

Platelet-derived growth factor receptor beta, sequence (P05622 whole entry): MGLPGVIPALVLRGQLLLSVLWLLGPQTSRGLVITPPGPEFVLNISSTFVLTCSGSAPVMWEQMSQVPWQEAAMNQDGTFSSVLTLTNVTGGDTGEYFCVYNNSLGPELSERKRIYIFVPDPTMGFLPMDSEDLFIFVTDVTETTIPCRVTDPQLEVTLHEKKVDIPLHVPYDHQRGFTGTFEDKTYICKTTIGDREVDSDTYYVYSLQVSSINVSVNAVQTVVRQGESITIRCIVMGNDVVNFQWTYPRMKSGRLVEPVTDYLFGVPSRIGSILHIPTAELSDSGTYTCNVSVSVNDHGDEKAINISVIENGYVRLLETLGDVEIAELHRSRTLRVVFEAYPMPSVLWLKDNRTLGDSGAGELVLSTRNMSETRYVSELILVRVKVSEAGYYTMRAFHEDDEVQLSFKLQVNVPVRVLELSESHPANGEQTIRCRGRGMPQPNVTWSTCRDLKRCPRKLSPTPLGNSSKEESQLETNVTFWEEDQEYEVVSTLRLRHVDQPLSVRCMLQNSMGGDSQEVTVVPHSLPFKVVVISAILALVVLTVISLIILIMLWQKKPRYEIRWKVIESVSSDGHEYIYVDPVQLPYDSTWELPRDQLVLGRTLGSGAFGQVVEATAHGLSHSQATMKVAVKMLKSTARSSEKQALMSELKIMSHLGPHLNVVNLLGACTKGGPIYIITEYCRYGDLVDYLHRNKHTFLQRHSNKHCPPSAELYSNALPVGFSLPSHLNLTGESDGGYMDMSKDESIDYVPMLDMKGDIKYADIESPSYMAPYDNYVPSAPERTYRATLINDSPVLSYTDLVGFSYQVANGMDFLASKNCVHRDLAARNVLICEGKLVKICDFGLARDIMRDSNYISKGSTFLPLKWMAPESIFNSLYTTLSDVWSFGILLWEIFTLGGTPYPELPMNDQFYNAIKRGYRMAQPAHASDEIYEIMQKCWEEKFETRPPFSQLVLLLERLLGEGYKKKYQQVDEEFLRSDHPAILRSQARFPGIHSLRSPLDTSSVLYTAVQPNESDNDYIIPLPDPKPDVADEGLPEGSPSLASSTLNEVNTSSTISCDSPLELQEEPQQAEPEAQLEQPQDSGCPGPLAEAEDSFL

| SMILES | IC50 [1] [µM] | IC50 [2] [µM] |
| --- | --- | --- |
| COc1ccc2oc(C(=O)c3cc4cc(OC)ccc4o3)cc2c1 | 1 | > 30 |
| COc1ccc2cc(C(=O)c3cc4ccc(OC)cc4o3)oc2c1 | > 30 | > 30 |
| O=C(c1cc2ccc(O)cc2o1)c1cc2ccc(O)cc2o1 | 9.7 | – |
| O=C(c1cc2cccc(O)c2o1)c1cc2cccc(O)c2o1 | 20 | > 30 |
| O=C(c1cc2ccccc2o1)c1cc2ccccc2o1 | 1.2 | – |
| Nc1ccc2oc(C(=O)c3cc4cc(N)ccc4o3)cc2c1 | 1.2 | – |
| Cc1cc2ncc(-c3ccccc3)nc2cc1C [AG1295] | 5.4 | – |

Further lines, results first:

| IC50 [1] [µM] | IC50 [2] [µM] | SMILES |
| --- | --- | --- |
| 0.6 | – | O=C(c1cc2cc(O)ccc2o1)c1cc2cc(O)ccc2o1 |
| 0.7 | – | CC(=O)Oc1ccc2oc(C(=O)c3cc4cc(OC(C)=O)ccc4o3)cc2c1 |
| 1.07 | – | O=C(c1cc2ccccc2[nH]1)c1cc2ccccc2o1 |
| 0.2 | – | O=C(c1cc2cc(O)ccc2[nH]1)c1cc2cc(O)ccc2o1 |
| > 30 | > 30 | COc1cccc2oc(C(=O)c3cc4c(OC)cccc4o3)cc12 |
| > 30 | > 30 | COc1cccc2cc(C(=O)c3cc4cccc(OC)c4o3)oc12 |
